Assay results taken from PMC4503722, “Novel Phenotypic Outcomes Identified for a Public Collection of Approved Drugs from a Publicly Accessible Panel of Assays” (PLoS ONE, 2015).
pIC50: −log10 of the molar value. Read-outs that look alike come from different tables or passages of the source.

Assays:
HeLa cells = experiment: cells; format: cell-based; details: for Hela CellCycMod PI 2N IC50/EC50: assay number 14; for Hela CellCycMod PI S Phase IC50/EC50: assay number 15; for Hela CellCycMod PI 4N IC50/EC50: assay number 16; for Hela CellCycMod PI MI IC50/EC50: assay number 17; for Hela CellCycMod PI Cell Number IC50/EC50: assay number 18
DLD-1 = experiment: cells; format: cell-based; details: for pIC50: read-out: Basal_Viability ATP DLD-1 summarized IC50
SW480 = experiment: cells; format: cell-based; details: for pIC50: read-out: Basal_Viability ATP SW480 summarized IC50
HCT116 = experiment: cells; format: cell-based; details: for pIC50: read-out: Basal_Viability ATP HCT116 summarized IC50
Colo320 = experiment: cells; format: cell-based; details: for pIC50: read-out: Basal_Viability ATP Colo 320 summarized IC50
HT-29 = experiment: cells; format: cell-based; details: for pIC50: read-out: Basal_Viability ATP HT-29 summarized IC50
RKO = experiment: cells; format: cell-based; details: for pIC50: read-out: Basal_Viability ATP RKO summarized IC50
SNU-C1 = experiment: cells; format: cell-based; details: for pIC50: read-out: Basal_Viability ATP SNU-C1 summarized IC50
[1] = test system: HCT116 cells treated with a GSK3β inhibitor; experiment: cells; format: cell-based; details: assay number 26; GSK3b inhibitor pretreated
[2] = test system: endothelial tube formation in co-cultures of ECFCs and ADSCs treated with VEGF; experiment: cells; format: cell-based, human; details: for pIC50: read-out: VEGF_ADSC\ECFC Angio CD31 TubeArea summarized IC50
[3] = test system: ECFC/ADSC co-culture cell nuclei number; details: for pIC50: read-out: VEGF_ADSC\ECFC Angio Hoechst NucArea summarized IC50

Row | Structure (SMILES) | Basal_Viability ATP HCT116 IC50/EC50 (HCT116; assay number 25, basal) [nM] | Basal_Viability ATP Colo 320 IC50/EC50 (Colo320; assay number 27, basal) [nM] | Basal_Viability ATP HT-29 IC50/EC50 (HT-29; assay number 28, basal) [nM] | Basal_Viability ATP RKO IC50/EC50 (RKO; assay number 29, basal) [nM] | Basal_Viability ATP SNU-C1 IC50/EC50 (SNU-C1; assay number 30, basal) [nM] | pIC50 [2] | pIC50 (DLD-1; assay number 23, basal) | pIC50 (SW480; assay number 24, basal) | pIC50 (HCT116; assay number 25, basal) | pIC50 (Colo320; assay number 27, basal) | pIC50 (HT-29; assay number 28, basal) | pIC50 (RKO; assay number 29, basal) | pIC50 (SNU-C1; assay number 30, basal) | pIC50 [3] | also measured
1 | NCCCC[C@H](N[C@@H](CCc1ccccc1)C(=O)O)C(=O)N1CCC[C@H]1C(=O)O [NCGC00179623-04] | 3392.5 | > 20000 | > 6667 | 8877.2 | 2534.7 |  |  |  |  |  |  |  |  |  | Hela CellCycMod PI 2N IC50/EC50 (HeLa cells): > 10000 nM; Hela CellCycMod PI S Phase IC50/EC50 (HeLa cells): > 10000 nM; Hela CellCycMod PI 4N IC50/EC50 (HeLa cells): > 10000 nM; Hela CellCycMod PI MI IC50/EC50 (HeLa cells): > 10000 nM; Hela CellCycMod PI Cell Number IC50/EC50 (HeLa cells): > 10000 nM; Basal_Viability ATP DLD-1 IC50/EC50 (DLD-1; assay number 23, basal): 2235.6 nM; Basal_Viability ATP SW480 IC50/EC50 (SW480; assay number 24, basal): 4028 nM
2 | C=Cc1c(C)c2cc3nc(cc4[nH]c(cc5nc(cc1[nH]2)C(C)=C5CCC(=O)O)c(CCC(=O)OC)c4C)[C@@]1(C)C3=CC=C(C(=O)OC)[C@@H]1C(=O)OC [NCGC00344558-01] | 5651.4 | 9620.5 | 3940.1 | 3529.6 | 5854 |  |  |  |  |  |  |  |  |  | Basal_Viability ATP SW480 IC50/EC50 (SW480; assay number 24, basal): > 6667 nM; GSK3b inh pretreated_Viability ATP HCT116 IC50/EC50 [1]: 4260.1 nM
3 | Nc1ncn([C@@H]2O[C@H](CO)[C@@H](O)[C@H]2O)c(=O)n1 [NCGC00090851-10] | 3036.4 |  |  |  |  |  |  |  |  |  |  |  |  |  | VEGF_ADSC\ECFC Angio CD31 TubeArea IC50/EC50 [2]: > 10000 nM; Basal_Viability ATP DLD-1 IC50/EC50 (DLD-1; assay number 23): 2550.2 nM; Basal_Viability ATP SW480 IC50/EC50 (SW480; assay number 24): > 6666.7 nM; Basal_Viability ATP Colo 320 IC50/EC50 (Colo320; assay number 27): 12340.6 nM; Basal_Viability ATP HT-29 IC50/EC50 (HT-29; assay number 28): 12532.9 nM; Basal_Viability ATP RKO IC50/EC50 (RKO; assay number 29): 7400.4 nM; Basal_Viability ATP SNU-C1 IC50/EC50 (SNU-C1; assay number 30): 1802.7 nM; VEGF_ADSC\ECFC Angio Hoechst NucArea IC50/EC50 [3]: > 10000 nM
4 | Nc1nc(Cl)nc2c1ncn2[C@@H]1O[C@H](CO)[C@@H](O)[C@@H]1F [NCGC00164553-02] | 1 | > 20000 | > 20000 | 1 | > 20000 |  |  |  |  |  |  |  |  |  | Hela CellCycMod PI 2N IC50/EC50 (HeLa cells): > 10000 nM; Hela CellCycMod PI S Phase IC50/EC50 (HeLa cells): > 10000 nM; Hela CellCycMod PI 4N IC50/EC50 (HeLa cells): > 10000 nM; Hela CellCycMod PI MI IC50/EC50 (HeLa cells): > 10000 nM; Hela CellCycMod PI Cell Number IC50/EC50 (HeLa cells): 5.16 nM; Basal_Viability ATP DLD-1 IC50/EC50 (DLD-1; assay number 23, basal): 163.6 nM; GSK3b inh pretreated_Viability ATP HCT116 IC50/EC50 [1]: 1 nM
5 | Cc1c(C)c2c(c(C)c1O)CC[C@@](C)(CCC[C@H](C)CCC[C@H](C)CCCC(C)C)O2 [NCGC00142625-10] |  |  |  |  |  | < 5.00 | < 4.70 | < 4.70 | < 4.70 | < 4.70 | < 4.70 | 5.58 | < 4.70 | < 5.00 | 
6 | CC(=O)[O][Hg][c]1ccccc1 [NCGC00091050-09] |  |  |  |  |  | 6.28 | 6.13 | 6.27 | 5.55 | 5.88 | 6.10 | 5.92 | 6.72 | 6.05 | 
7 | Cc1cc(C(C#N)c2ccc(Cl)cc2)c(Cl)cc1NC(=O)c1cc(I)cc(I)c1O (stereo not shown) [NCGC00166312-02] |  |  |  |  |  |  |  |  |  |  |  |  |  |  | VEGF_ADSC\ECFC Angio CD31 TubeArea IC50/EC50 [2]: > 10000 nM; Basal_Viability ATP DLD-1 IC50/EC50 (DLD-1): 69 nM; Basal_Viability ATP SW480 IC50/EC50 (SW480): 46 nM; Basal_Viability ATP HCT116 IC50/EC50 (HCT116): 97.75 nM; Basal_Viability ATP Colo 320 IC50/EC50 (Colo320): 116 nM; Basal_Viability ATP HT-29 IC50/EC50 (HT-29): 125.5 nM; Basal_Viability ATP RKO IC50/EC50 (RKO): 197.1 nM; Basal_Viability ATP SNU-C1 IC50/EC50 (SNU-C1): 43.8 nM; VEGF_ADSC\ECFC Angio Hoechst NucArea IC50/EC50 [3]: 7360 nM
8 | CN(C)c1ccc(C(=C2C=CC(=[N+](C)C)C=C2)c2ccc(N(C)C)cc2)cc1 [NCGC00091112-09] |  |  |  |  |  | 6.73 | 6.33 | 6.28 | 6.29 | 5.69 | 6.33 | 6.00 | 6.40 | 5.74 | 
